Assay results as given in US10588902B2, “Camptothecin derivatives as anti-HIV agents and methods of identifying agents that disrupt Vif self-association” (OyaGen, Inc., priority 2013, dated 2020).
Values after ≈ are worked out from the molar mass of the structure shown.

Assays:
[1] = PubChem BioAssays; cited from earlier work
Topo1 = molecular target: T1, Topo1 (Homo sapiens, UniProt P11387); experiment: in vitro Topo1 drug screening assay (Topogen); type: biochemical; conditions: increasing amounts, compared to the 0 chem control
T1 construct: purchased Topogen
T1 sequence (P11387 1-765): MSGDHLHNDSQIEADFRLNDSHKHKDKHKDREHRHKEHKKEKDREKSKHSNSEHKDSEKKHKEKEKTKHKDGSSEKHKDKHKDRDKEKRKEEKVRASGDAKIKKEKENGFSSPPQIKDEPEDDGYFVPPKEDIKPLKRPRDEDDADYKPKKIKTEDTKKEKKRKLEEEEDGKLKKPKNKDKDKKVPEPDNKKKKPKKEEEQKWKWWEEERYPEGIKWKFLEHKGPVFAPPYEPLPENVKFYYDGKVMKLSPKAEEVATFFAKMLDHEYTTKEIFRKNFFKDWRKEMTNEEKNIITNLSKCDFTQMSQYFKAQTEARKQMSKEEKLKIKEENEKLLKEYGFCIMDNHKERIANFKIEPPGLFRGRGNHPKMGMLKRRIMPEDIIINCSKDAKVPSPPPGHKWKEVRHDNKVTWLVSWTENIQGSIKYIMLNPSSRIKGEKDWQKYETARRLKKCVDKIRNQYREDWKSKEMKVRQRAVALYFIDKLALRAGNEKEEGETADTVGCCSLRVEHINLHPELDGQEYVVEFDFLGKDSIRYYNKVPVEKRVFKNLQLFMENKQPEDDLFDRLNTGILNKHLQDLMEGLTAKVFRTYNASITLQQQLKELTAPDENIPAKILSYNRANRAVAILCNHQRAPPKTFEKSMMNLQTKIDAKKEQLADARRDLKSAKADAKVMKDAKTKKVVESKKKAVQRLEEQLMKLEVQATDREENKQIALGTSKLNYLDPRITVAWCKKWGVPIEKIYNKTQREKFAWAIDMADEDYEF

A3.01 cells = experiment: cell cycle test (propidium iodide, flow cytometry); type: cell-based; conditions: for G2 block: CPT 0.2 μM, OYA002-16 0.2 and 0.4 μM
Method: FIGS. 9A and 9B illustrate results of an in vitro drug screening assay for toxicity of the OYA002-16 small molecule of the present invention. […] After 24 hours of compound treatment cells were fixed in methanol and treated with propidium iodide (PI) to stain the cellular DNA in A3.01 cells (a CEM derived T-cell line). Flow cytometry of the cells can detect if the cells are in the G1 S or G2 phase of mitosis based on amount of PI staining in each cell.

Vif:Vif complex = molecular target: T2, Vif:Vif complex (Human immunodeficiency virus type 1 group M subtype B, UniProt P12504); type: cell-based, HIV; conditions: change in RFU over the quenched control
T2 construct: expressed in transfected cells; host or cells: HEK 293T cells, transient co-transfection of two plasmids
Excerpt: EGFP-V5-Vif (the fluorescence donor) and Vif-HA-REACh2 (the acceptor and non-fluorescent YFP variant that quenches EGFP fluorescence) will be co-expressed in HEK 293T cells. Compounds that dissociate Vif multimers will induce EGFP fluorescence making this a positive screen for small molecules that disrupt Vif self-association.
EGFP is a FRET donor and REACh2 (Resonance Energy Accepting Chromoprotein 2) is a non-fluorescent FRET acceptor (54). The non-fluorescent REACh2 is able to quench EGFP signal in a distance-dependent manner when they are linked to interacting domains. However, if there is no interaction, EGFP and REACh2 are not proximal and quenching will not occur. […]
EGFP-V5-Vif alone has a strong baseline fluorescence. […]
Experimentals relating to adapting the quenched FRET assay to 96-well and 384-well format are set forth below: • Description of reagents and readouts: We are currently capable of screening small libraries in 96-well format, and have optimized transfections for 384-well format. […] REACh2 is a non-fluorescent YFP variant that quenches EGFP through FRET, so in the default state Vif dimerizes and the EGFP signal is quenched, a compound that affects the interaction will cause an increase in fluorescence due to lack of FRET from interacting proteins (aka “releasing of the quench”). Our read out is fluorescence at GFP's excitation and emission in a PE Victor 3 plate reader. […]

pseudotyped HIV = experiment: single round infectivity assay with pseudotyped HIV (TZM-bl luciferase reporter cells); type: cell-based; conditions: up to 33.3 μM, +/−Vif, +/−A3G
Method: The antiviral activity of the hits in a single round infection with psuedotyped HIV was assessed. […] The wildtype HIV proviral vector codes for all HIV genes except nef (replaced with EGFP) and env. The delta Vif proviral vector is identical to wildtype except that it contains a stop codon early within the vif gene. […] Alternatively, in the absence of A3G, both wild type and Delta Vif viruses should have good infectivity.
Transfecting the coat protein on a separate vector, allows for only a single round of infection. […] Viral load was normalized with a p24 ELISA Kit (Zeptometrix, Buffalo, N.Y.). Equal viral loads were then added in triplicate to TZM-bl reporter cells that express luciferase from the HIV-LTR promoter. 48 hours after infection luciferase levels were assessed with Steady-Glo reagent (Promega).
The antiviral activity of the hits in a single-round infection with pseudotyped HIV were conducted using HEK293T producer cells +/−A3G and viruses that are +/−Vif. […]
The infections utilized TZM-bl reporter cells that contain stably integrated luciferase that is driven by the HIV-LTR promoter, therefore luciferase is expressed upon successful HIV infection. […] Luminescence was measured as a quantitative metric for changes in infectivity with each compound as compared to controls, in which relative luminescence units (RLU) with no compounds are set to 100%.

A3G in viral particles = experiment: A3G viral particle content (western blot of purified viral particles); type: cell-based; conditions: p24 normalized
Excerpt: Perform ‘hit’ validation assays to confirm that small molecules selected by the primary and secondary screens have antiviral activity through their antagonism of Vif self-association. Antiviral activity will be validated for each compound with a luciferase viral infectivity reporter assay using infected TZM-bl cells in microtiter plate format. Each compound's ability to inhibit Vif-Vif interaction will be evaluated by co-immunoprecipitation.
Another way to observe target specificity is by looking at the amount of A3G that is encapsulated into the viral particle. Since Vif blocks A3G from getting into the virus, more A3G should be present in viral particles isolated from cells dosed with a small molecule that disables Vif's function.

[2] = tested on: Vif-dependent A3G degradation; experiment: in-cell secondary screen for Vif-dependent A3G degradation (A3G-mCherry 293T cells); type: cell-based; conditions: compared to +Vif (0%) and −Vif (100%) controls
Method: FIG. 10 illustrates in-cell secondary screen fro Vif-dependent A3G degradation. […] 50 ng of Vif was transiently transfected into the cells in 384-well format with Turbofect. 4 hours after transfection the chemistries were added to cells. 24 hours after chemistries were added the mCherry signal was read on a Biotek Synergy 4 plate reader. The signal from plated cells not transfected with Vif was averaged and set at 100% (left image), and cells transfected with Vif and treated with DMSO only were averaged and set at 0% (right image). A chemistry that inhibits Vif's ability to chaperone A3G to the proteasomal degradation pathway would result in an increased mCherry signal compared to the DMSO only control, and any signal that is much higher than the no-Vif positive control is likely to be due to autofluorescence from the chemistry itself.
The primary screen is represented as a change in RFU over the quenched control (ARFU). The secondary screen is compared to the +Vif (0%) and −Vif (100%) controls as described in FIG. 10.

885 bp region of Pol = experiment: Next Gen Sequencing for A3G signature mutation profiles; type: cell-based, HIV
Excerpt: FIG. 14 is an illustration relating to a Next Gen Sequencing for A3G signature mutation profiles. Next Gen Sequencing with the Ion Torrent platform was used to sequence over 27 million bases for each sample. An 885 bp region of Pol was nested PCR amplified from genomic DNA isolated from TZM-bl cells infected in the previous Figures with −Vif virus+A3G (Positive Control) and +Vif virus+A3G & OYA002-16 (OYA002-16) and −Vif−A3G & OYA002-16 (Negative Control). There were 60 possible A3G “GG” signature mutation sites (A3G mediated single-stranded DNA mutations occur preferentially at the 3′ C of CC dinucleotide pairs) in the region sequenced. 34 sites were mutated at a rate of 15- to 339-fold over the background mutation rate for the Positive Control. 34 sites were mutated at a rate of 48 to 200-fold over background for the OYA002-16 sample. 21 sites overlapped between the two.

HepG2 cells = experiment: high content imaging toxicity study, HepG2; type: cell-based
Method: (§1) All cells are plated on 384-well collagen-coated, tissue culture-treated black walled clear bottomed polystyrene plates. Rat hepatocytes are seeded and dosed on the day they are harvested. Dosing takes place after attachment to the plate. They are treated with test compound at a 10 point dose range of concentrations and incubated for 24 and 48 hrs. HepG2 cells are seeded on the day prior to dosing and are treated with test compound at a 10 point dose range of concentrations and incubated for 24 and 72 hours. At the end of the incubation period, the cells are loaded with the relevant dye/antibody for each cell health marker. The plates are then scanned using an automated High Content Imager, Array Scan® VTI (Thermo Fisher Cellomics). The GSH, ROS, and 5 day toxicity assays were run at 1 time point, 18 hours post-dosing for GSH, 4 hr post-dose for ROS, and 5 days post-drug treatment for the 5 day assay.

[3] = tested on: rat hepatocytes and HepG2 cells; experiment: high content imaging toxicity study, all tested cell types; type: cell-based
Method: as §1

solubility in Lac-Buffer = type: physicochemical; conditions: 37 °C, thermodynamic from solid
Method: Solubility: 0.7 mg of OYA002-16 was suspended in 100.8 μl Lac-Buffer pH 4.5 or pH 7.4, vortexed for 10 min and warmed-up at 37° C. for 10 min, sonicated for 5 min and vortexed again for 10 min and centrifuged for 10 min. Supernatant was directly injected for concentration measurement. pH 7.4 Solubility: 65-72 μM by UV, 58-63 μM by CLND. pH 4.5 Solubility: 74-92 μM by UV, 74 μM by CLND.
(§2) HPLC conditions used for the experiments were as follows: Column: Luna C-18, 150×4.6 from Phenomenex. Eluent: 42% aqueous CAN with 0.75 mM NH4OAc, pH=6.8. Detection: UV at 254 nm. Temperature: 35° C. Flow: 1.5 mL/min. Injection: 20 uL (solubility, freeze/thaw) or 200 uL (stability).

[4] = stability test in PBS buffer; type: physicochemical; conditions: after 48 h in PBS
Method: For each compound, a 0.250 uM stock solution in DMSO was prepared and sonicated until clear. Then, for each stability test, the cpd was formulated by adding 10 uL of the stock solution to 990 uL of PBS buffer, pH 7.0 and then a 200 uL aliquot was incubated 37° C. for 24 or 48 hrs.
as §2

[5] = stability test after 3 freeze/thaw cycles; type: physicochemical
Method: For each compound, an aliquot of the stock solution (250 uM in DMSO) was frozen for 24 hrs at −80° C. and thawed for 1 hr, 3 times, then diluted 10 times in 40% CAN and analyzed by HPLC.
as §2

T2 sequence (P12504 whole entry, one chain of several): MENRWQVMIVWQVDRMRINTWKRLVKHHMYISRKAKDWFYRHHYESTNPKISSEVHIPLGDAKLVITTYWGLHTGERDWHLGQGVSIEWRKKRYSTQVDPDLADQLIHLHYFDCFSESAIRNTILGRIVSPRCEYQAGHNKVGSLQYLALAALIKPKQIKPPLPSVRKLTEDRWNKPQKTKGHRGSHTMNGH

Structure (SMILES): CC[C@@]1(O)C(=O)OCc2c1cc1n(c2=O)Cc2cc3c(NC(=O)CN)cccc3nc2-1 [9-glycineamido-20(S)-CPT]
- active in Anti-Cancer Screens at NCI [1]: 37 of 76

Structure (SMILES): CC[C@@]1(O)C(=O)OCc2c1cc1n(c2=O)Cc2cc3ccccc3nc2-1 [CPT, Camptothecin]
- open nicked circles of plasmid DNA (Topo1 poisoning) (Topo1): trap plasmid DNA into open nicked circles
- G2 block (A3.01 cells; 24 hours): strong G2 block

Structure (SMILES): CC[C@@]1(O)C(=O)NCc2c1cc1n(c2=O)Cc2cc3ccccc3nc2-1 [OYA002-16, Lactam-CPT]
- dose dependence in primary screen (Vif:Vif complex): dose dependence
- antiviral effect in single cycle HIV infectivity (pseudotyped HIV): dose dependent antiviral effect only when Vif and A3G were expressed
- A3G in viral particles (A3G in viral particles): increases A3G in viral particles
- open nicked circles of plasmid DNA (Topo1 poisoning) (Topo1): no increase in open nicked circles
- cell cycle effects (A3.01 cells): minimal cell cycle effects
- cells in G2 (A3.01 cells; 0.2 and 0.4 μM, 24 hours, DMSO control 17%): 22%
- G2 block (A3.01 cells; 24 hours): minimal amount of G2 block
- dose dependence in secondary screen (mCherry signal) [2]: dose dependence
- mutated sites overlapping with Positive Control (885 bp region of Pol): 21 sites
- A3G signature mutation sites mutated (885 bp region of Pol; +Vif virus +A3G, 60 possible sites): 34 sites
- Cytostasis (HepG2 cells): largest effect
- Stress and Apoptosis assays [3]: minimal effect
- Viability tests [3]: minimal effect
- solubility at 35 min (solubility in Lac-Buffer; pH 4.5, aqueous buffer, pH 4.5, by CLND): 74 µM (≈ 25.7 µg/mL)
- solubility at 35 min (solubility in Lac-Buffer; pH 4.5, aqueous buffer, pH 4.5, by UV): 74 to 92 µM (≈ 25.7 to 32 µg/mL)
- solubility at 35 min (solubility in Lac-Buffer; pH 7.4, aqueous buffer, pH 7.4, by CLND): 58 to 63 µM (≈ 20.1 to 21.9 µg/mL)
- solubility at 35 min (solubility in Lac-Buffer; pH 7.4, aqueous buffer, pH 7.4, by UV): 65 to 72 µM (≈ 22.6 to 25 µg/mL)
- stable [4]: 100%
- stable [5]: 100%

Structure (SMILES): CC[C@@]1(O)C(=O)OCc2c1cc1n(c2=O)Cc2cc3c(CN(C)C)c(O)ccc3nc2-1 [Topotecan]
- active in Anti-Cancer Screens at NCI [1]: active in most

Structure (SMILES): CC[C@H]1C(=O)OCc2c1cc1n(c2=O)Cc2cc3ccccc3nc2-1 [deoxy-CPT]
- active in Anti-Cancer Screens at NCI [1]: 4 of 68
